Test systems include ACHN renal; CCRF-CEM leukemia; HCT-15 colon; MCF7 breast; OVCAR-4 ovarian; PC-3 prostate; RPMI-8226 leukemia; SF-268 CNS; SF-295 CNS; UACC-62 melanoma.
What all share (test): growth of human tumour cells (NCI), 48 h

Values joined by “and” are separate entries in the source; they are usually repeats but may differ in a detail not shown here. Identical values can stand only once.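 Cells were grown in 96-well plates and exposed to each compound for 48 hours at five concentrations; endpoints were interpolated linearly between bracketing concentrations, or set to the highest concentration if not reached. GI50 = concentration required for 50% inhibition of growth. The concentration for full growth arrest is given as TGI.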 Some results are limits rather than exact numbers.

`N#CCCNc1nonc1-c1nc2ccccc2n1CC(=O)c1ccc(NC(=O)[C@@H](N)CCCCN)cc1`: the GI50 in the assay on ACHN renal is 0.0583 µM; in the assay with CCRF-CEM leukemia it was 0.0368 µM; in the assay with HCT-15 colon it was 0.0356 µM; in the assay with MCF7 breast, 0.0302 µM; in the assay on OVCAR-4 ovarian, 0.0436 µM; in the assay with PC-3 prostate it was 0.046 µM. For the same molecule, the GI50 in the assay on RPMI-8226 leukemia is 0.0434 µM; with SF-268 CNS it was 0.071 µM; in the assay on SF-295 CNS, 0.016 µM; in the assay with UACC-62 melanoma, 0.0213 µM. Further, the TGI with ACHN renal, with CCRF-CEM leukemia, in the assay on HCT-15 colon, with MCF7 breast, in the assay on OVCAR-4 ovarian and with PC-3 prostate was above 100 µM each time. For the same molecule, the TGI in the assay on RPMI-8226 leukemia, in the assay with SF-268 CNS, with SF-295 CNS and in the assay on UACC-62 melanoma was above 100 µM in each case.
For the molecule `COc1ccc(/C=C(/C)[N+](=O)[O-])cc1OC`, the GI50 with ACHN renal is 2.18 µM and 1.46 µM; in the assay with CCRF-CEM leukemia it was 1.96 µM and 0.786 µM; with HCT-15 colon it was 2.08 µM and 1.02 µM; with MCF7 breast, 1.23 µM and 1.09 µM; with OVCAR-4 ovarian it was 1.91 µM and 2.27 µM; in the assay with PC-3 prostate it was 2.65 µM and 2.78 µM. For the same molecule, the GI50 is 0.971 µM and 1.6 µM in the assay with RPMI-8226 leukemia; 2.82 µM and 3.61 µM with SF-268 CNS; 17.4 µM and 12.5 µM in the assay on SF-295 CNS; 1.78 µM and 1.72 µM in the assay on UACC-62 melanoma. The TGI in the assay on ACHN renal is 4.19 µM and 2.82 µM; in the assay with CCRF-CEM leukemia, 5.31 µM and 5.72 µM; with HCT-15 colon, 5.47 µM and 2.67 µM; in the assay with MCF7 breast, 3.26 µM and 2.57 µM; in the assay on OVCAR-4 ovarian, 3.88 µM and 4.77 µM; in the assay on PC-3 prostate, 6.34 µM and 6.74 µM. Further, the TGI in the assay with RPMI-8226 leukemia was 3.43 µM and 5.18 µM; with SF-268 CNS it was 7.13 µM and 13.2 µM; in the assay on SF-295 CNS, 32.4 µM and 27.1 µM; with UACC-62 melanoma it was 3.62 µM and 3.89 µM.
For the molecule `O=C(Nc1ccccc1OC(=O)c1ccccc1)c1ccccc1`, the GI50 is 43.6 µM in the assay on ACHN renal; 5.87 µM in the assay on CCRF-CEM leukemia; 4.37 µM in the assay with HCT-15 colon; 12.9 µM in the assay with MCF7 breast; 18.7 µM in the assay with OVCAR-4 ovarian; 6.11 µM in the assay on PC-3 prostate. In addition, the GI50 in the assay on RPMI-8226 leukemia is 38.6 µM; in the assay with SF-268 CNS it was 3.98 µM; with SF-295 CNS, 2.47 µM; in the assay on UACC-62 melanoma, 64.8 µM. Further, the TGI in the assay on ACHN renal, with CCRF-CEM leukemia, in the assay with HCT-15 colon, with MCF7 breast, in the assay on OVCAR-4 ovarian and in the assay on PC-3 prostate was above 100 µM in each case. The TGI in the assay on RPMI-8226 leukemia is above 100 µM; in the assay on SF-268 CNS, above 100 µM; in the assay with SF-295 CNS it was 8.03 µM; with UACC-62 melanoma it was above 100 µM.
Turning to `O=Nc1c(-c2c(O)[nH]c3ncccc23)[nH]c2ccccc12`, the GI50 was 2.58 µM with ACHN renal; 5.07 µM in the assay with CCRF-CEM leukemia; 3.92 µM in the assay with HCT-15 colon; 18.7 µM with MCF7 breast; 9.1 µM in the assay on OVCAR-4 ovarian; above 26.1 µM in the assay with PC-3 prostate. Moreover, the GI50 in the assay with SF-268 CNS and in the assay with SF-295 CNS was above 100 µM throughout. Besides, the TGI in the assay on ACHN renal, in the assay on CCRF-CEM leukemia, in the assay on HCT-15 colon, in the assay with MCF7 breast, with OVCAR-4 ovarian and in the assay on PC-3 prostate was above 100 µM in each case. The TGI with RPMI-8226 leukemia is above 79 µM; in the assay with SF-268 CNS it was above 100 µM; in the assay with SF-295 CNS, above 100 µM; with UACC-62 melanoma it was above 100 µM.

For the origin of these results see PubChem BioAssay (NCI).
